From paper PMC7743076 (bioRxiv, 2021)
“And” between values parts separate entries of the source, which are not always exact repeats. Equal values may be shown once. Where a name gives a salt, the structure may show the parent alone.

Legend:
[1] = system: B.1.617.2 pseudovirus, entry into 293T-ACE2-TMPRSS2 cells; type: cell-based, SARS-CoV-2
[2] = biological target: SARS-CoV-2 RBD (RBD Wuhan-1) binding to ACE2 (Severe acute respiratory syndrome coronavirus 2, UniProt P0DTC2)
[3] = system: SARS-CoV-2 variant pseudoviruses (D614G, P.1., B 1.1.7, B.1.429 and B1.351), entry into 293T-ACE2-TMPRSS2 cells; type: cell-based
[4] = system: B.1.617.1 pseudovirus, entry into 293T-ACE2-TMPRSS2 cells; type: cell-based, SARS-CoV-2; details: for IC50: read-out: IC50, B.1.617.1 PV transduction assay

CC(C)(S)C(=O)N[C@@H](CS)C(=O)O [Bucillamine]
Increase of IC50 for B.1.617.2 versus B.1.617.1 [1]: approximately two-fold
Inhibition of binding of RBD Wuhan-1 to ACE2 (in words) [2]: much stronger effects

NCCS [Cysteamine]
Entry of SARS-CoV-2 PV variants, cells pretreated [3]: not affected
Potency against variant PV entry (in words) [3]: less potent against the other variants tested
IC50 [4]: ~1000 µM
Increase of IC50 for B.1.617.2 versus B.1.617.1 [1]: 3–15 fold
Inhibition of binding of RBD Wuhan-1 to ACE2 (in words) [2]: much stronger effects

N[C@@H](CS)C(=O)O [L-cysteine]
Inhibition of B.1.617.1 PV entry (in words) [4]: intermediate potency

O=S(=O)(O)CCS [Mesna, 2-mercaptoethane sulfonate, sodium salt]
IC50, B.1.617.2 PV transduction assay [1]: did not achieve an IC50 value at the doses tested
Inhibition of binding of RBD Wuhan-1 to ACE2 (in words) [2]: much stronger effects

CC(C)(S)[C@@H](N)C(=O)O [Penicillamine]
Inhibition of binding of RBD Wuhan-1 to ACE2 (in words) [2]: relatively weak inhibitory effects

O=C(O)[C@@H](S)[C@@H](S)C(=O)O [Succimer, Dimercaptosuccinic acid]
Inhibition of binding of RBD Wuhan-1 to ACE2 (in words) [2]: relatively weak inhibitory effects

CO[C@H]1O[C@H](CS)[C@H](O)[C@H](O)[C@H]1O [TDG, methyl 6-thio-6-deoxy-α-D-galactopyranoside]
Potency higher than compounds with similarly high pKa values (NAC, Mesna) [4]: 5 fold
Increase of IC50 for B.1.617.2 versus B.1.617.1 [1]: 3–15 fold

NCCCNCCS [WR-1065]
IC50 [4]: ~1000 µM
Increase of IC50 for B.1.617.2 versus B.1.617.1 [1]: 3–15 fold
IC50 ([1]; read-out: IC50, B.1.617.2 PV transduction assay): 6000 µM and 5000 to 15000 µM
Inhibition of binding of RBD Wuhan-1 to ACE2 (in words) [2]: much stronger effects
